Reference: patent US20250115598A1 (Anaxis Pharma Pty Ltd, priority 2021, published 2025)

biological target: human MLKL (full length) (Homo sapiens (Human), UniProt Q8NB16); test: KINOMEscan binding assay, human MLKL (full length); details: KINOMEscan, Table 21; read-out: Human MLKL (full-length) (KD)
Protocol: (§1) Binding affinity of the test compounds for human MLKL (full length), mouse MLKL (full length), human RIPK1 and human RIPK3 was determined using the KINOMEscan™ technology developed by DiscoverX (USA; http://www.discoverx.com). The assay was conducted according to manufacturer instructions.
(§2) Kinase assays. For most assays, kinase-tagged T7 phage strains were grown in parallel in 24-well blocks in an E. coli host derived from the BL21 strain. E. coli were grown to log-phase and infected with T7 phage from a frozen stock (multiplicity of infection=0.4) and incubated with shaking at 32° C. until lysis (90-150 minutes). The lysates were centrifuged (6,000×g) and filtered (0.2 μm) to remove cell debris. The remaining kinases were produced in HEK-293 cells and subsequently tagged with DNA for qPCR detection. […] The liganded beads were blocked with excess biotin and washed with blocking buffer (SeaBlock (Pierce), 1% BSA, 0.05% Tween 20, 1 mM DTT) to remove unbound ligand and to reduce non-specific phage binding. […] All reactions were performed in polypropylene 384-well plates in a final volume of 20 μL. […] The kinase concentration in the eluates was measured by qPCR.
(§3) An 11-point 3-fold serial dilution of each test compound was prepared in 100% DMSO at 100× final test concentration and subsequently diluted to 1× in the assay (final DMSO concentration=1%). Most Kos were determined using a compound top concentration=30,000 nM.
(§4) KD for each test compound was calculated with a standard dose-response curve using the Hill equation (equation (1)): […]
(§5) The Hill Slope was set to −1.
(§6) Curves were fitted using a non-linear least square fit with the Levenberg-Marquardt algorithm.

Chain of human MLKL (full length) (Q8NB16 whole entry): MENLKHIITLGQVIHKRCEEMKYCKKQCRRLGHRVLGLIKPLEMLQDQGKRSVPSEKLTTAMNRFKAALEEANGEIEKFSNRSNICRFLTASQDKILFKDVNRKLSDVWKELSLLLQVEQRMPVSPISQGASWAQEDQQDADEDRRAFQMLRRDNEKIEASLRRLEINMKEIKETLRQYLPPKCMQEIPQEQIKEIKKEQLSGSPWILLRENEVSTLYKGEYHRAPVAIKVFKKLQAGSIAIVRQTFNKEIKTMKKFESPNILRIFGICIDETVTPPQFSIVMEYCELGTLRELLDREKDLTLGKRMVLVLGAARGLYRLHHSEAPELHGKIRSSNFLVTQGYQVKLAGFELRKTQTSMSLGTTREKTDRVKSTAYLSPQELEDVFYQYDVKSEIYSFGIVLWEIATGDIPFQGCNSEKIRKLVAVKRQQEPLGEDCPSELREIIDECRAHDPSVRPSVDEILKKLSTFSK

Kd [nM] | Compound
< 1 | Cn1nc(-c2ccc(NS(=O)(=O)C(F)F)c(OCc3ccc(F)cc3)c2)c2c(N)ncc(-c3ccncc3)c21 [Compound 14, N-(4-(4-amino-1-methyl-7-(pyridin-4-yl)-1H-pyrazolo[4,3-c]pyridin-3-yl)-2-((4-fluoro-benzyl)oxy)phenyl)-1,1-difluoromethane-sulfonamide]
< 1 | COc1ccc([C@H](C)Oc2cc(-c3nn(C)c4c(-c5cnn(C6CCOCC6)c5)cnc(N)c34)ccc2NS(=O)(=O)C(F)F)cc1 [Compound 129, (S)-N-(4-(4-amino-1-methyl-7-(1-(tetrahydro-2H-pyran-4-yl)-1H-pyrazol-4-yl)-1H-pyrazolo[4,3-c]pyridin-3-yl)-2-(1-(4-methoxy-phenyl)ethoxy)phenyl)-1,1-difluoromethane-sulfonamide]

same assay, conditions: hMLKL, Table 25; read-out: MLKL (KD)

Kd [nM] | Compound
< 10 | Cc1ncsc1-c1ccc(CNC(=O)[C@@H]2C[C@@H](O)CN2C(=O)[C@@H](NC(=O)CCN2CCC(C#Cc3cnc(N)c4c(-c5ccc(NS(=O)(=O)C(F)F)c(O[C@@H](C)c6ccc(F)cc6)c5)nn(C)c34)CC2)C(C)(C)C)cc1 [Compound 1024, (2S,4R)-1-[(2S)-2-{3-[4-(2-{4-amino-3-[4-(difluoromethanesulfonamido)-3-[(1S)-1-(4-fluorophenyl)ethoxy]phenyl]-1-methyl-1H-pyrazolo[4,3-c]pyridin-7-yl}ethynyl)piperidin-1-yl]propanamido}-3,3-dimethylbutanoyl]-4-hydroxy-N-{[4-(4-methyl-1,3-thiazol-5-yl)phenyl]methyl}pyrrolidine-2-carboxamide]
10 to 1000 | Cc1ncsc1-c1ccc(CNC(=O)[C@@H]2C[C@@H](O)CN2C(=O)[C@@H](NC(=O)c2ccc(OCCn3cc(-c4cnc(N)c5c(-c6ccc(NS(=O)(=O)C(F)F)c(O[C@@H](C)c7ccc(F)cc7)c6)nn(C)c45)cn3)cc2)C(C)(C)C)cc1 [Compound 1037, (2S,4R)-1-[(2S)-2-({4-[2-(4-{4-amino-3-[4-(difluoromethanesulfonamido)-3-[(1S)-1-(4-fluorophenyl)ethoxy]phenyl]-1-methyl-1H-pyrazolo[4,3-c]pyridin-7-yl}-1H-pyrazol-1-yl)ethoxy]phenyl}formamido)-3,3-dimethylbutanoyl]-4-hydroxy-N-{[4-(4-methyl-1,3-thiazol-5-yl)phenyl]methyl}pyrrolidine-2-carboxamide]
< 10 | Cc1ncsc1-c1ccc(CNC(=O)[C@@H]2C[C@@H](O)CN2C(=O)[C@@H](NC(=O)CCCCN2CCC(C#Cc3cnc(N)c4c(-c5ccc(NS(=O)(=O)C(F)F)c(O[C@@H](C)c6ccc(F)cc6)c5)nn(C)c34)CC2)C(C)(C)C)cc1 [Compound 1063, (2S,4R)-1-[(2S)-2-{5-[4-(2-{4-amino-3-[4-(difluoromethanesulfonamido)-3-[(1S)-1-(4-fluorophenyl)ethoxy]phenyl]-1-methyl-1H-pyrazolo[4,3-c]pyridin-7-yl}ethynyl)piperidin-1-yl]pentanamido}-3,3-dimethylbutanoyl]-4-hydroxy-N-{[4-(4-methyl-1,3-thiazol-5-yl)phenyl]methyl}pyrrolidine-2-carboxamide]
< 10 | Cc1ncsc1-c1ccc(CNC(=O)[C@@H]2C[C@@H](O)CN2C(=O)[C@@H](NC(=O)CCCCOC(=O)c2ccc(-c3cnc(N)c4c(-c5ccc(NS(=O)(=O)C(F)F)c(O[C@@H](C)c6ccc(F)cc6)c5)nn(C)c34)cn2)C(C)(C)C)cc1 [Compound 1065, 4-{[(2S)-1-[(2S,4R)-4-hydroxy-2-({[4-(4-methyl-1,3-thiazol-5-yl)phenyl]methyl}carbamoyl)pyrrolidin-1-yl]-3,3-dimethyl-1-oxobutan-2-yl]carbamoyl}butyl 5-{4-amino-3-[4-(difluoromethanesulfonamido)-3-[(1S)-1-(4-fluorophenyl)ethoxy]phenyl]-1-methyl-1H-pyrazolo[4,3-c]pyridin-7-yl}pyridine-2-carboxylate]
< 10 | CN[C@@H](C)C(=O)N[C@H](C(=O)N1C[C@H](NC(=O)CCCCn2cc(-c3cnc(N)c4c(-c5ccc(NS(=O)(=O)C(F)F)c(O[C@@H](C)c6ccc(F)cc6)c5)nn(C)c34)cn2)C[C@H]1C(=O)Nc1c(F)cccc1F)C(C)(C)C [Compound 1080, (2S)-4-[5-(4-{4-amino-3-[4-(difluoromethanesulfonamido)-3-[(1S)-1-(4-fluorophenyl)ethoxy]phenyl]-1-methyl-1H-pyrazolo[4,3-c]pyridin-7-yl}-1H-pyrazol-1-yl)pentanamido]-N-(2,6-difluorophenyl)-1-[(2S)-3,3-dimethyl-2-[(2S)-2-(methylamino)propanamido]butanoyl]pyrrolidine-2-carboxamide]
< 10 | CN[C@@H](C)C(=O)N[C@H](C(=O)N1C[C@H](NC(=O)COCCn2cc(-c3cnc(N)c4c(-c5ccc(NS(=O)(=O)C(F)F)c(O[C@@H](C)c6ccc(F)cc6)c5)nn(C)c34)cn2)C[C@H]1C(=O)Nc1c(F)cccc1F)C(C)(C)C [Compound 1089, (2S)-4-{2-[2-(4-{4-amino-3-[4-(difluoromethanesulfonamido)-3-[(1S)-1-(4-fluorophenyl)ethoxy]phenyl]-1-methyl-1H-pyrazolo[4,3-c]pyridin-7-yl}-1H-pyrazol-1-yl)ethoxy]acetamido}-N-(2,6-difluorophenyl)-1-[(2S)-3,3-dimethyl-2-[(2S)-2-(methylamino)propanamido]butanoyl]pyrrolidine-2-carboxamide]
< 10 | COc1ccc(C(=O)N2CCC(n3cc(-c4cnc(N)c5c(-c6ccc(NS(=O)(=O)C(F)F)c(O[C@@H](C)c7ccc(F)cc7)c6)nn(C)c45)cn3)CC2)cc1N1CCC(=O)NC1=O [Compound 1092, N-{4-[4-amino-7-(1-{1-[3-(2,4-dioxo-1,3-diazinan-1-yl)-4-methoxybenzoyl]piperidin-4-yl}-1H-pyrazol-4-yl)-1-methyl-1H-pyrazolo[4,3-c]pyridin-3-yl]-2-[(1S)-1-(4-fluorophenyl)ethoxy]phenyl}-1,1-difluoromethanesulfonamide]
< 10 | C[C@H](Oc1cc(-c2nn(C)c3c(-c4cnn(C5CCN(CCN6CCCC6COc6cccc7c6C(=O)N(C6CCC(=O)NC6=O)C7=O)CC5)c4)cnc(N)c23)ccc1NS(=O)(=O)C(F)F)c1ccc(F)cc1 (stereo partly drawn) [Compound 1120, N-(4-{4-amino-7-[1-(1-{2-[2-({[2-(2,6-dioxopiperidin-3-yl)-1,3-dioxo-2,3-dihydro-1H-isoindol-4-yl]oxy}methyl)pyrrolidin-1-yl]ethyl}piperidin-4-yl)-1H-pyrazol-4-yl]-1-methyl-1H-pyrazolo[4,3-c]pyridin-3-yl}-2-[(1S)-1-(4-fluorophenyl)ethoxy]phenyl)-1,1-difluoromethanesulfonamide]
10 to 1000 | Cc1ncsc1-c1ccc(CNC(=O)[C@@H]2C[C@@H](O)CN2C(=O)[C@@H](NC(=O)C2(F)CC2)C(C)(C)C)c(OCCCCCCCCCn2cc(-c3cnc(N)c4c(-c5ccc(NS(=O)(=O)C(F)F)c(O[C@@H](C)c6ccc(F)cc6)c5)nn(C)c34)cn2)c1 [Compound 1138, (2S,4R)—N-[(2-{[9-(4-{4-amino-3-[4-(difluoromethanesulfonamido)-3-[(1S)-1-(4-fluorophenyl)ethoxy]phenyl]-1-methyl-1H-pyrazolo[4,3-c]pyridin-7-yl}-1H-pyrazol-1-yl)nonyl]oxy}-4-(4-methyl-1,3-thiazol-5-yl)phenyl)methyl]-1-[(2S)-2-[(1-fluorocyclopropyl) formamido]-3,3-dimethylbutanoyl]-4-hydroxypyrrolidine-2-carboxamide]
< 10 | C[C@H](Oc1cc(-c2nn(C)c3c(-c4cnn(C5CCN(C(=O)CCC6CCN(c7cccc8c7C(=O)N(C7CCC(=O)N(C)C7=O)C8=O)CC6)CC5)c4)cnc(N)c23)ccc1NS(=O)(=O)C(F)F)c1ccc(F)cc1 (stereo partly drawn) [Compound 1141, N-[4-(4-amino-1-methyl-7-{1-[1-(3-{1-[2-(1-methyl-2,6-dioxopiperidin-3-yl)-1,3-dioxo-2,3-dihydro-1H-isoindol-4-yl]piperidin-4-yl}propanoyl)piperidin-4-yl]-1H-pyrazol-4-yl}-1H-pyrazolo[4,3-c]pyridin-3-yl)-2-[(1S)-1-(4-fluorophenyl)ethoxy]phenyl]-1,1-difluoromethanesulfonamide]

biological target: human RIPK1 (Homo sapiens (Human), UniProt Q13546); test: KINOMEscan binding assay, human RIPK1; details: Table 21
Protocol: as §1, §2, §3, §4, §5, §6

Chain of human RIPK1 (Q13546 whole entry): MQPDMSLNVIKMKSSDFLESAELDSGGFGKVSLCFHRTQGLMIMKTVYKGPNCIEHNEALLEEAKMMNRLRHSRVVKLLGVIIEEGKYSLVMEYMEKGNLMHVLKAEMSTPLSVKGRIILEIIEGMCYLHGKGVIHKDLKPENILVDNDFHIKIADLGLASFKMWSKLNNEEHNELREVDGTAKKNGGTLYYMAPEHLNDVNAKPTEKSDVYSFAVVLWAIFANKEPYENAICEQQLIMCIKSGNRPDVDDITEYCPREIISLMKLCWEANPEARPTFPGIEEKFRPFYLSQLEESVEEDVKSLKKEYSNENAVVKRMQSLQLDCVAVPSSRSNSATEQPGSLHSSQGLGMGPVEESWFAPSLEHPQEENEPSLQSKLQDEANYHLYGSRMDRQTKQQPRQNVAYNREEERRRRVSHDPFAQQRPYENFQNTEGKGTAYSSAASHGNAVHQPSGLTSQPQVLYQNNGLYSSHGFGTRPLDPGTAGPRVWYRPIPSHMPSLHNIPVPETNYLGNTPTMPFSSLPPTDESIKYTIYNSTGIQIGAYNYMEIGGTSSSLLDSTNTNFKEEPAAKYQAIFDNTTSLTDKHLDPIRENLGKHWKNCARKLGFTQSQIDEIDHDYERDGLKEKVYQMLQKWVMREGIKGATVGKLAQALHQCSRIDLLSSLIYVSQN

Kd [nM] | Compound
> 10000 | CCS(=O)(=O)Nc1ccc(-c2nn(C)c3c(NC(C)=O)cnc(N)c23)cc1OCc1ccc(F)cc1 [Compound 2, N-(4-amino-3-(4-(ethylsulfonamido)-3-((4-fluorobenzyl)oxy)phenyl)-1-methyl-1H-pyrazolo[4,3-c]pyridin-7-yl)acetamide]
> 10000 | CCS(=O)(=O)Nc1ccc(-c2coc3c(-c4cnn(CCO)c4)cnc(N)c23)cc1OCc1ccc(F)cc1 [Compound 4, N-(4-(4-amino-7-(1-(2-hydroxyethyl)-1H-pyrazol-4-yl)furo[3,2-c]pyridin-3-yl)-2-((4-fluorobenzyl)oxy)phe-nyl)ethanesulfonamide]
> 10000 | Cn1nc(-c2ccc(NS(=O)(=O)C(F)F)c(OCc3ccc(F)cc3)c2)c2c(N)nccc21 [Compound 10, N-(4-{4-amino-1-methyl-1H-pyrazolo[4,3-c]pyridin-3-yl}-2-[(4-fluorophenyl)methoxy]phenyl)-1,1-difluoromethanesulfonamide]

biological target: human RIPK3 (Homo sapiens (Human), UniProt Q9Y572); test: KINOMEscan binding assay, human RIPK3; details: Table 21
Protocol: as §1, §2, §3, §4, §5, §6

Chain of human RIPK3 (Q9Y572 whole entry): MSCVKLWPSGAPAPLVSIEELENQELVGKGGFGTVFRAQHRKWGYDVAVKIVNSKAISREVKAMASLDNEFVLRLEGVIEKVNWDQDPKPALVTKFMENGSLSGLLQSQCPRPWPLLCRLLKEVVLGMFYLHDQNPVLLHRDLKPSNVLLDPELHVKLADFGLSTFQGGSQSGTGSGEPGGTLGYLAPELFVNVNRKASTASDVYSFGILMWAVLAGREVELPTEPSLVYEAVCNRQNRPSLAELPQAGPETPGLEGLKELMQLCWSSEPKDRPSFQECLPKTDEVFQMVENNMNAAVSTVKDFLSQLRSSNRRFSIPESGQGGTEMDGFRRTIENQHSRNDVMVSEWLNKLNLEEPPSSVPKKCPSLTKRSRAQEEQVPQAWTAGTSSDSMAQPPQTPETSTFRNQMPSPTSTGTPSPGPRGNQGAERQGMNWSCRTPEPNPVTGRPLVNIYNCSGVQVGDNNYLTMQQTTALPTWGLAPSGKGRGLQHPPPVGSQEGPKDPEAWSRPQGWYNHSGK

Kd [nM] | Compound
> 10000 | CCS(=O)(=O)Nc1ccc(-c2nn(C)c3c(NC(C)=O)cnc(N)c23)cc1OCc1ccc(F)cc1 [Compound 2, N-(4-amino-3-(4-(ethylsulfonamido)-3-((4-fluorobenzyl)oxy)phenyl)-1-methyl-1H-pyrazolo[4,3-c]pyridin-7-yl)acetamide]
> 10000 | CCS(=O)(=O)Nc1ccc(-c2coc3c(-c4cnn(CCO)c4)cnc(N)c23)cc1OCc1ccc(F)cc1 [Compound 4, N-(4-(4-amino-7-(1-(2-hydroxyethyl)-1H-pyrazol-4-yl)furo[3,2-c]pyridin-3-yl)-2-((4-fluorobenzyl)oxy)phe-nyl)ethanesulfonamide]
> 10000 | Cn1nc(-c2ccc(NS(=O)(=O)C(F)F)c(OCc3ccc(F)cc3)c2)c2c(N)nccc21 [Compound 10, N-(4-{4-amino-1-methyl-1H-pyrazolo[4,3-c]pyridin-3-yl}-2-[(4-fluorophenyl)methoxy]phenyl)-1,1-difluoromethanesulfonamide]
